Results on 24 molecules are retold here after patent US20140005163A1 (NOVARTIS AG, priority 2010, published 2014).

For one data set, the target named is T1, PI3K gamma (Homo sapiens, UniProt P48736).
T1 construct: His tag (C); made in house; host or cells: baculovirus (pVL1393); Tn5 or TiniPro insect cells; construct from Roger Williams lab, MRC LMB
Kind of data set: PI3K gamma kinase assay (Kinase-Glo luminescence). The class given is biochemical. In a few lines: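 PI3Kγ (150 nM) reaction run 120 min at room temperature with phosphatidylinositol substrate (10 μg/mL) and ATP (1 μM) in Tris pH 7.5 buffer containing MgCl2, NaCl, CHAPS and DTT. Remaining ATP detected by Kinase-Glo luminescence; 8 concentrations per compound, IC50 from 4-parameter curve fitting.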
Background: Kinase-Glo measures the ATP left after a reaction by luminescence.

The nature of data set [1]: Cellular CaCo2 permeability assay from apical to basal (A-B). The class given is in vitro ADME. The following applies: human, Caco-2, read-out: Pe A-B (permeability). From the text: The permeability in 10^−6 cm/s of compounds of formula (I) have been confirmed for selected example using a cellular CaCo2 permeability assay from apical to basal (A-B): […]
For orientation: Caco-2 monolayers are a common model of the intestinal barrier.

T1 sequence (P48736 144-1102 limits assumed): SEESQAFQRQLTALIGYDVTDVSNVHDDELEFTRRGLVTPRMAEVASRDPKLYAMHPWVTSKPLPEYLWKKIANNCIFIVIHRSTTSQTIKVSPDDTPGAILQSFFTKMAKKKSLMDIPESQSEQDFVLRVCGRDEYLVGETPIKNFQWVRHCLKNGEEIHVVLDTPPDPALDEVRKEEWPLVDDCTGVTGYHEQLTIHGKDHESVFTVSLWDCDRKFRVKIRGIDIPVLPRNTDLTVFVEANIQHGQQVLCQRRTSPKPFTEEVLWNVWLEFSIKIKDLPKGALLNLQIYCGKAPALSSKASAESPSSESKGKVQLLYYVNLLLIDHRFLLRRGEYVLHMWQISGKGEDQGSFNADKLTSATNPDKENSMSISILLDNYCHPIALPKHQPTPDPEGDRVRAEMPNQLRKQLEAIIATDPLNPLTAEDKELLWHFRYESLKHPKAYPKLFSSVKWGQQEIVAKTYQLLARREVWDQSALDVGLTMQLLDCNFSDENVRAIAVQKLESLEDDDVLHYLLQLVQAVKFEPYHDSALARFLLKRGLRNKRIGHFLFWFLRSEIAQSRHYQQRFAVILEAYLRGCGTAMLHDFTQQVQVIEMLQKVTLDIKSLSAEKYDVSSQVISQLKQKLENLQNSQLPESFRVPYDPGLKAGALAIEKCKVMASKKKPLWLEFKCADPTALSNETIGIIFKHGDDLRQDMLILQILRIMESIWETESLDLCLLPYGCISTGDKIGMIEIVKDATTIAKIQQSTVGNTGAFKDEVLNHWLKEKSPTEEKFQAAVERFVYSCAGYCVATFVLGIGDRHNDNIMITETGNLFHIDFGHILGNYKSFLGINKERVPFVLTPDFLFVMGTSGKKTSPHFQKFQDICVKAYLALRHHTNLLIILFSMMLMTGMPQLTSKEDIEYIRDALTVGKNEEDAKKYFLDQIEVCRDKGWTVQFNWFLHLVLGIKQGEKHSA

As a reminder, the IC50 is the point on the concentration scale where inhibition reaches its midpoint. Turning to `CCCOc1ccc(-c2ccc3ncc4c(c3c2)n(-c2cn(C)nc2C)c(=O)n4C)cn1` [Example 55, 1-(1,3-Dimethyl-1H-pyrazol-4-yl)-3-methyl-8-(6-propoxy-pyridin-3-yl)-1,3-dihydro-imidazo[4,5-c]quinolin-2-one], the IC50 on PI3K gamma is 343 nM. On to `CNc1ccc(-c2ccc3ncc4c(c3c2)n(-c2cn(C(C)C)nc2C)c(=O)n4C)cn1` [Example 118.1, 1-(1-isopropyl-3-methyl-1H-pyrazol-4-yl)-3-methyl-8-(6-methylamino-pyridin-3-yl)-1,3-dihydro-imidazo[4,5-c]quinolin-2-one], for which the IC50 at PI3K gamma stood at 164 nM.

As for `Cc1nn(C)cc1-n1c(=O)n(C)c2cnc3ccc(-c4cccnc4)cc3c21` [Example 10.2, 1-(1,3-Dimethyl-1H-pyrazol-4-yl)-3-methyl-8-pyridin-3-yl-1,3-dihydro-imidazo[4,5-c]quinolin-2-one], the IC50 on PI3K gamma was determined as 129 nM.

As for `COc1ccc(-c2ccc3ncc4c(c3c2)n(-c2c(C)nn(C)c2C)c(=O)n4C)cc1OC` [Example 1.9, 8-(3,4-Dimethoxy-phenyl)-3-methyl-1-(1,3,5-trimethyl-1H-pyrazol-4-yl)-1,3-dihydro-imidazo[4,5-c]quinolin-2-one], the half-inhibitory concentration (IC50) on PI3K gamma is 100 nM.

Regarding `Cc1nn(C(C)C)cc1-n1c(=O)n(C)c2cnc3ccc(-c4ccc(C(N)=O)nc4)cc3c21` [Example 112, 5-[1-(1-Isopropyl-3-methyl-1H-pyrazol-4-yl)-3-methyl-2-oxo-2,3-dihydro-1H-imidazo[4,5-c]quinolin-8-yl]-pyridine-2-carboxylic acid amide], the IC50 on PI3K gamma was 471 nM. In the case of `Cc1nn(C)cc1-n1c(=O)n(C)c2cnc3ccc(-c4ccc(N5CCN(C)CC5)nc4)cc3c21` [Example 96, 1-(1,3-Dimethyl-1H-pyrazol-4-yl)-3-methyl-8-[6-(4-methyl-piperazin-1-yl)-pyridin-3-yl]-1,3-dihydro-imidazo[4,5-c]quinolin-2-one], the Papp A→B in data set [1] is 6 ×10⁻⁶ cm/s. With `CNC(=O)c1ccc(-c2ccc3ncc4c(c3c2)n(-c2cn(C)nc2Cl)c(=O)n4C)cc1` [Example 43.2, 4-[1-(3-Chloro-1-methyl-1H-pyrazol-4-yl)-3-methyl-2-oxo-2,3-dihydro-1H-imidazol[4,5-c]quinolin-8-yl]-N-methyl-benzamide], the IC50 at PI3K gamma was determined as 114 nM. Same read-out and setting: in the case of `COc1ccc(-c2ccc3ncc4c(c3c2)n(-c2cnn(C)c2C)c(=O)n4C)cn1` [Example 2.9, 1-(1,5-Dimethyl-1H-pyrazol-4-yl)-8-(6-methoxy-pyridin-3-yl)-3-methyl-1,3-dihydro-imidazo[4,5-c]quinolin-2-one] it was 206 nM; in that of `Cc1c(-n2c(=O)n(C)c3cnc4ccc(-c5ccc(N(C)C)nc5)cc4c32)cnn1C` [Example 4.4, 8-(6-Dimethylamino-pyridin-3-yl)-1-(1,5-dimethyl-1H-pyrazol-4-yl)-3-methyl-1,3-dihydro-imidazo[4,5-c]quinolin-2-one], 341 nM.

`CCn1cc(-n2c(=O)n(C)c3cnc4ccc(-c5ccc(COC)nc5)cc4c32)c(C)n1` [Example 104, 1-(1-Ethyl-3-methyl-1H-pyrazol-4-yl)-8-(6-methoxymethyl-pyridin-3-yl)-3-methyl-1,3-dihydro-imidazo[4,5-c]quinolin-2-one]: the Papp A→B in data set [1] is 20.5 ×10⁻⁶ cm/s. Also, the IC50 on PI3K gamma was 582 nM. For `CCn1cc(-n2c(=O)n(C)c3cnc4ccc(-c5ccc(CO)nc5)cc4c32)c(C)n1` [Example 16.1, 1-(1-ethyl-3-methyl-1H-pyrazol-4-yl)-8-(6-hydroxymethyl-pyridin-3-yl)-3-methyl-1,3-dihydro-imidazo[4,5-c]quinolin-2-one], on PI3K gamma, the IC50 was found to be 415 nM. On to `CCOc1ccc(-c2ccc3ncc4c(c3c2)n(-c2cn(C)nc2Cl)c(=O)n4C)cn1` [Example 3.8, 1-(3-Chloro-1-methyl-1H-pyrazol-4-yl)-8-(6-ethoxy-pyridin-3-yl)-3-methyl-1,3-dihydro-imidazo[4,5-c]quinolin-2-one], for which the IC50 on PI3K gamma came to 529 nM. On the same count and under the same terms, in the case of `Cc1nn(C)cc1-n1c(=O)n(C)c2cnc3ccc(-c4ccc(OCC5CC5)nc4)cc3c21` [Example 42, 8-(6-Cyclopropylmethoxy-pyridin-3-yl)-1-(1,3-dimethyl-1H-pyrazol-4-yl)-3-methyl-1,3-dihydro-imidazo[4,5-c]quinolin-2-one] it was 590 nM. For `CCNc1cc(-c2ccc3ncc4c(c3c2)n(-c2cn(C)nc2C)c(=O)n4C)cnc1C` [Example 87.1, 1-(1,3-Dimethyl-1H-pyrazol-4-yl)-8-(5-ethylamino-6-methyl-pyridin-3-yl)-3-methyl-1,3-dihydro-imidazo[4,5-c]quinolin-2-one], in data set [1], the Papp A→B stood at 17 ×10⁻⁶ cm/s. On to `Cc1nn(C)cc1-n1c(=O)n(C)c2cnc3ccc(-c4cncc(S(C)(=O)=O)c4)cc3c21` [Example 22, 1-(1,3-Dimethyl-1H-pyrazol-4-yl)-8-(5-methanesulfonyl-pyridin-3-yl)-3-methyl-1,3-dihydro-imidazo[4,5-c]quinolin-2-one], for which, at PI3K gamma, the IC50 is 73 nM.

As for `Cc1nn(C)cc1-n1c(=O)n(C)c2cnc3ccc(-c4ccc5c(c4)CCN5C)cc3c21` [Example 50, 1-(1,3-Dimethyl-1H-pyrazol-4-yl)-3-methyl-8-(1-methyl-2,3-dihydro-1H-indol-5-yl)-1,3-dihydro-imidazo[4,5-c]quinolin-2-one], the IC50 at PI3K gamma amounted to 334 nM. Same read-out and setting: in the case of `CNc1ccc(-c2ccc3ncc4c(c3c2)n(-c2cn(CC(=O)N(C)C)nc2C)c(=O)n4C)cn1` [Example 118.3, N,N-Dimethyl-2-{3-methyl-4-[3-methyl-8-(6-methylamino-pyridin-3-yl)-2-oxo-2,3-dihydro-imidazo[4,5-c]quinolin-1-yl]-pyrazol-1-yl}-acetamide] it was 138 nM; in that of `Cc1nn(C)cc1-n1c(=O)n(C)c2cnc3ccc(-c4cccc(N(C)S(C)(=O)=O)c4)cc3c21` [Example 117, N-{3-[1-(1,3-Dimethyl-1H-pyrazol-4-yl)-3-methyl-2-oxo-2,3-dihydro-1H-imidazo[4,5-c]quinolin-8-yl]-phenyl}-N-methyl-methanesulfonamide], 225 nM.

`Cc1nn(C(C)C)cc1-n1c(=O)n(C)c2cnc3ccc(-c4cnc(N(C)C)nc4)cc3c21` [Example 6.1, 8-(2-Dimethylamino-pyrimidin-5-yl)-1-(1-isopropyl-3-methyl-1H-pyrazol-4-yl)-3-methyl-1,3-dihydro-imidazo[4,5-c]quinolin-2-one]: at PI3K gamma, the IC50 came out at 182 nM.

`COc1ccc(-c2ccc3ncc4c(c3c2)n(-c2cn(CC(=O)N(C)C)nc2C)c(=O)n4C)cn1` [Example 102, 2-{4-[8-(6-Methoxy-pyridin-3-yl)-3-methyl-2-oxo-2,3-dihydro-imidazo[4,5-c]quinolin-1-yl]-3-methyl-pyrazol-1-yl}-N,N-dimethyl-acetamide]: the Papp A→B in data set [1] is 7.7 ×10⁻⁶ cm/s. Further, at PI3K gamma, the IC50 came out at 246 nM.

Take `Cc1nn(C)cc1-n1c(=O)n(C)c2cnc3ccc(-c4cncnc4)cc3c21` [Example 26, 1-(1,3-Dimethyl-1H-pyrazol-4-yl)-3-methyl-8-pyrimidin-5-yl-1,3-dihydro-imidazo[4,5-c]quinolin-2-one]: the IC50 on PI3K gamma turned out to be 777 nM.

For `Cc1nn(C)cc1-n1c(=O)n(C)c2cnc3ccc(-c4cnc5[nH]ccc5c4)cc3c21` [Example 36, 1-(1,3-dimethyl-1H-pyrazol-4-yl)-3-methyl-8-(1H-pyrrolo[2,3-b]pyridin-5-yl)-1,3-dihydro-imidazo[4,5-c]quinolin-2-one], the IC50 at PI3K gamma is 118 nM. On the same count and under the same terms, in the case of `Cc1nn(C)cc1-n1c(=O)n(C)c2cnc3ccc(-c4cc(O)cc(C(F)(F)F)c4)cc3c21` [Example 34, 1-(1,3-Dimethyl-1H-pyrazol-4-yl)-8-(3-hydroxy-5-trifluoromethyl-phenyl)-3-methyl-1,3-dihydro-imidazo[4,5-c]quinolin-2-one] it was 82 nM; in that of `CCOc1cccc(-c2ccc3ncc4c(c3c2)n(-c2cn(C)nc2C)c(=O)n4C)c1` [Example 57, 1-(1,3-Dimethyl-1H-pyrazol-4-yl)-8-(3-ethoxy-phenyl)-3-methyl-1,3-dihydro-imidazo[4,5-c]quinolin-2-one], 197 nM.
